Experiments:
Assay in all cases: radiometric filter-binding kinase assay, Kinase HotSpot
Details in all cases: compound 0.5 µM; ATP 10 µM
[1] = target: MAP3K7 TAB1 (human) (UniProt O43318+Q15750)
[2] = target: EPHA4 (human) (UniProt P54764)
[3] = target: AURKC (human) (UniProt Q9UQB9)
[4] = target: CDK6 CCND1 (human) (UniProt Q00534+P24385)
[5] = target: MAP3K2 (human) (UniProt Q9Y2U5)
[6] = target: TAOK2 (human) (UniProt Q9UL54)
[7] = target: NEK11 (human) (UniProt Q8NG66)
[8] = target: PAK3 (human) (UniProt O75914)
[9] = target: AKT2 (human) (UniProt P31751)
[10] = target: ERBB4 (human) (UniProt Q15303)
[11] = target: FES (human) (UniProt P07332)
[12] = target: PHKG2 (human) (UniProt P15735)
[13] = target: KDR (human) (UniProt P35968)
[14] = target: RPS6KB1 (human) (UniProt P23443)
[15] = target: TSSK1B (human) (UniProt Q9BXA7)
[16] = target: RPS6KA5 KD2 (human) (UniProt O75582)
[17] = target: ACVR1B (human) (UniProt P36896)
[18] = target: CDK1 CCNA2 (human) (UniProt P06493+P20248)
[19] = target: DDR2 (human) (UniProt Q16832)
[20] = target: CDK4 CCND3 (human) (UniProt P30281+P11802)
[21] = target: TAOK1 (human) (UniProt Q7L7X3)
[22] = target: CLK3 (human) (UniProt P49761)
[23] = target: WEE1 (human) (UniProt P30291)
[24] = target: RET (human) (UniProt P07949)
[25] = target: ERBB2 (human) (UniProt P04626)
[26] = target: VRK1 (human) (UniProt Q99986)
[27] = target: DAPK2 (human) (UniProt Q9UIK4)
[28] = target: PKN2 (human) (UniProt Q16513)
[29] = target: PDPK1 (human) (UniProt O15530)
[30] = target: MAPK14 (human) (UniProt Q16539)
[31] = target: FGR (human) (UniProt P09769)
[32] = target: TNK2 (human) (UniProt Q07912)
[33] = target: KIT (human) (UniProt P10721)
[34] = target: MERTK (human) (UniProt Q12866)
[35] = target: CDK5 CDK5R1 p25 (human) (UniProt Q00535+Q15078)
[36] = target: PRKACG (human) (UniProt P22612)
[37] = target: STK11 (human) (UniProt Q15831)
[38] = target: TEC (human) (UniProt P42680)
[39] = target: RAF1 (human) (UniProt P04049)
[40] = target: MAPK1 (human) (UniProt P28482)
[41] = target: CSNK1D (human) (UniProt P48730)
[42] = target: PBK (human) (UniProt Q96KB5)
Chain of PBK (human) (Q96KB5 whole entry, looked up): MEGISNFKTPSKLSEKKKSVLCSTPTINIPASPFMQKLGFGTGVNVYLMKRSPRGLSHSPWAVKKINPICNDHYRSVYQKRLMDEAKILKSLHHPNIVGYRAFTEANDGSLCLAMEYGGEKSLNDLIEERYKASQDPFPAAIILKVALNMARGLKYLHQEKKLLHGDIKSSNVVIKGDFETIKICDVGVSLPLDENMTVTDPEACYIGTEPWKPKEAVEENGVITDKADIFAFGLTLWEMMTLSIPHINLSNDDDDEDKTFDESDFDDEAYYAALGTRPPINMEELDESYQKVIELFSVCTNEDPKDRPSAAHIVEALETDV

Chain of TAOK2 (human) (Q9UL54 whole entry, looked up): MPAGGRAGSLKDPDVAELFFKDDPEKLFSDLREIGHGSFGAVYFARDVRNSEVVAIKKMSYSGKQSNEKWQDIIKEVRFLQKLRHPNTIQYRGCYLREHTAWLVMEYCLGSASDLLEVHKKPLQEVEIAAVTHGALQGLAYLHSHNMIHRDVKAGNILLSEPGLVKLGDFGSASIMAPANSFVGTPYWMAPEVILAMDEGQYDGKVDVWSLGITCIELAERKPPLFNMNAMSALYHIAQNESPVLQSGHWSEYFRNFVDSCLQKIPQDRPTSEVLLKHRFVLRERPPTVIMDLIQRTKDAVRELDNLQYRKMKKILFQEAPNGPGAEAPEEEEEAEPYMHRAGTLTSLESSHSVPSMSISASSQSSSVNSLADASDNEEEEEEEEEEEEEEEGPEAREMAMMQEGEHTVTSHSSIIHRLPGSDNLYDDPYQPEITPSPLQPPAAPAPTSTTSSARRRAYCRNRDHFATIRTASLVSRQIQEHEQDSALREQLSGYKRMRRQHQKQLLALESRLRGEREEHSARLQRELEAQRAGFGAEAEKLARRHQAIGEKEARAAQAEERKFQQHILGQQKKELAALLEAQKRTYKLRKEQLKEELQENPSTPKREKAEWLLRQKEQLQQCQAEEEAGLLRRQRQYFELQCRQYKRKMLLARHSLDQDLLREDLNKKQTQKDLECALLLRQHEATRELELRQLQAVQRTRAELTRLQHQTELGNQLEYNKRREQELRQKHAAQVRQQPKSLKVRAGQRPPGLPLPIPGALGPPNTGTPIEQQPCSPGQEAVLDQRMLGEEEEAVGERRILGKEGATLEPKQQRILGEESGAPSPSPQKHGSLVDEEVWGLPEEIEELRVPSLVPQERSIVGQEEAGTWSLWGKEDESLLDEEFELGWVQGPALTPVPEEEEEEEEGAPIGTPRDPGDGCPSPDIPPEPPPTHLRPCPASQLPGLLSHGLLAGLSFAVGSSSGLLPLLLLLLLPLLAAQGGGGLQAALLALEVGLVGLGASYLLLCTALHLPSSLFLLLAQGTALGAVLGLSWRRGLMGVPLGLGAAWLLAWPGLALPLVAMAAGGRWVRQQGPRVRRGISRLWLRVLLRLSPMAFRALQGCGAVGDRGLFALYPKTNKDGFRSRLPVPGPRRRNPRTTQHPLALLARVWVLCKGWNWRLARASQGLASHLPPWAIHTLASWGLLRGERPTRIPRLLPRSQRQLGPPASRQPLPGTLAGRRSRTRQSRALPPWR
Chain of CDK4 CCND3 (human) (P11802 whole entry, looked up): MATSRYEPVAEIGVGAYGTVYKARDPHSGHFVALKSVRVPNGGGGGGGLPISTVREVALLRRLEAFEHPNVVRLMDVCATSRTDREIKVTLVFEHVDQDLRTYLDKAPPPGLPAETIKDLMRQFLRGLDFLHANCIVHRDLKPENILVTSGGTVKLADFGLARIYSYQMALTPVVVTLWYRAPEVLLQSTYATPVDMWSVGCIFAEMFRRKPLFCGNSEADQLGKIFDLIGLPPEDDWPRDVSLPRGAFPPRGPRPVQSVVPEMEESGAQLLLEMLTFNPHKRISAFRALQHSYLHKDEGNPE
Chain of CDK4 CCND3 (human) (P30281 whole entry, looked up): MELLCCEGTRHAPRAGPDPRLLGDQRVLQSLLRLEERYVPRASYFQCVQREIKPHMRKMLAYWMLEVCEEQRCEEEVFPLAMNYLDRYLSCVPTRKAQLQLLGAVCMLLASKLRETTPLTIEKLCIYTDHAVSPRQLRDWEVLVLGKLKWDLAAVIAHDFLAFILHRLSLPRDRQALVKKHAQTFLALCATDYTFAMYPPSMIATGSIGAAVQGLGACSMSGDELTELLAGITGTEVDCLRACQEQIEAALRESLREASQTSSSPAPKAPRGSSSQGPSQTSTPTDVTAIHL
Chain of CSNK1D (human) (P48730 whole entry, looked up): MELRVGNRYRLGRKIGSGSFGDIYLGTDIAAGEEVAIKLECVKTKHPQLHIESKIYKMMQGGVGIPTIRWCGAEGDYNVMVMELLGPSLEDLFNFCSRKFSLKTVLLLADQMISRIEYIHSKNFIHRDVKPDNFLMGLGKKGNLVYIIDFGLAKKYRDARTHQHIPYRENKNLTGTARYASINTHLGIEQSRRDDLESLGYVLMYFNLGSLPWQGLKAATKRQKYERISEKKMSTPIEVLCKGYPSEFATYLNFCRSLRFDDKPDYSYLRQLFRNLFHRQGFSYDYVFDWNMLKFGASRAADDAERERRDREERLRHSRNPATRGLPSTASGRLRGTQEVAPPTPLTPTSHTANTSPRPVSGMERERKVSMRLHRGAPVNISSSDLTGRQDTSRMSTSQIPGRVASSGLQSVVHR
Chain of TEC (human) (P42680 whole entry, looked up): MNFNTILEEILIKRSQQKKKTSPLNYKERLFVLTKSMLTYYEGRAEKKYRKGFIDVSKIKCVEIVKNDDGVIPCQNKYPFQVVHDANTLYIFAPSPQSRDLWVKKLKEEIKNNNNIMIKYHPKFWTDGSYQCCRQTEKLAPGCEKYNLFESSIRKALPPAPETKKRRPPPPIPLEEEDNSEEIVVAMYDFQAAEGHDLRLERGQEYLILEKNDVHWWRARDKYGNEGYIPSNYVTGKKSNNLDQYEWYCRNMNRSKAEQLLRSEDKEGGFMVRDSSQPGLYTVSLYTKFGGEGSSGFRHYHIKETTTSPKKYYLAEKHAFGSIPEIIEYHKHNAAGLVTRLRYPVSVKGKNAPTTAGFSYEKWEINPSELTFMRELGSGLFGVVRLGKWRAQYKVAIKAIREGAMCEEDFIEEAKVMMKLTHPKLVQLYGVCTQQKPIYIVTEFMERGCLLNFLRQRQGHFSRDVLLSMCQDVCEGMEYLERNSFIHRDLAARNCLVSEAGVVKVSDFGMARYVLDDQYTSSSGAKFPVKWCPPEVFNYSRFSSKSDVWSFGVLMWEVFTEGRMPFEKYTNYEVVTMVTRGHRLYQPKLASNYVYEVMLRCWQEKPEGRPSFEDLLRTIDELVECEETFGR
Chain of STK11 (human) (Q15831 whole entry, looked up): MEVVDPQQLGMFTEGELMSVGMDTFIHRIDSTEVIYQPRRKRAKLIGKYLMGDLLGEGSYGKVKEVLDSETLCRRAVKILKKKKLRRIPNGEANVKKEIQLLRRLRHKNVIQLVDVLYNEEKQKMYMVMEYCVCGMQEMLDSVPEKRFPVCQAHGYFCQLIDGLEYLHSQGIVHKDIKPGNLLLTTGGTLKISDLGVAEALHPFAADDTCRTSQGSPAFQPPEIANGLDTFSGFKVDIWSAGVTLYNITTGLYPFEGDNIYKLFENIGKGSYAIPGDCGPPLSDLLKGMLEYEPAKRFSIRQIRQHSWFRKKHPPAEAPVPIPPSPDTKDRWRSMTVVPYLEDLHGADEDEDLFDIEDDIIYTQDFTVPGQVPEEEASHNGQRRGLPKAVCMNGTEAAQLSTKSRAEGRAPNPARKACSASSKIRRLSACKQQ
Chain of PDPK1 (human) (O15530 whole entry, looked up): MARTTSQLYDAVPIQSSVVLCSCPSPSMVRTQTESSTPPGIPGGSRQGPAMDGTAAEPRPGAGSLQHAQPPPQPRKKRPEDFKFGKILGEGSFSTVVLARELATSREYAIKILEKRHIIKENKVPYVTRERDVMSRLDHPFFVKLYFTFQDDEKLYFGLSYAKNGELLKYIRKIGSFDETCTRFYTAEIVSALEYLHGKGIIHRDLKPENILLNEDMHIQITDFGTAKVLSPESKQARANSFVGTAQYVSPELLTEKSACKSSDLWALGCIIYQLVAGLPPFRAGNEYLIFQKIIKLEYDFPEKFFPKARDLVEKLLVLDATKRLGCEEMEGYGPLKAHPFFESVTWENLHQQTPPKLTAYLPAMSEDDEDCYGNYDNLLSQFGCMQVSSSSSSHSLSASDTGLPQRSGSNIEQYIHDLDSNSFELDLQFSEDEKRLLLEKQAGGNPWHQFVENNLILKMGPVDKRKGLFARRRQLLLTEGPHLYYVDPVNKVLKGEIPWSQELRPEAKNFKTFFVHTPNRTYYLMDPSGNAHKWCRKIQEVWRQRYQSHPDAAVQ
Chain of MAP3K2 (human) (Q9Y2U5 whole entry, looked up): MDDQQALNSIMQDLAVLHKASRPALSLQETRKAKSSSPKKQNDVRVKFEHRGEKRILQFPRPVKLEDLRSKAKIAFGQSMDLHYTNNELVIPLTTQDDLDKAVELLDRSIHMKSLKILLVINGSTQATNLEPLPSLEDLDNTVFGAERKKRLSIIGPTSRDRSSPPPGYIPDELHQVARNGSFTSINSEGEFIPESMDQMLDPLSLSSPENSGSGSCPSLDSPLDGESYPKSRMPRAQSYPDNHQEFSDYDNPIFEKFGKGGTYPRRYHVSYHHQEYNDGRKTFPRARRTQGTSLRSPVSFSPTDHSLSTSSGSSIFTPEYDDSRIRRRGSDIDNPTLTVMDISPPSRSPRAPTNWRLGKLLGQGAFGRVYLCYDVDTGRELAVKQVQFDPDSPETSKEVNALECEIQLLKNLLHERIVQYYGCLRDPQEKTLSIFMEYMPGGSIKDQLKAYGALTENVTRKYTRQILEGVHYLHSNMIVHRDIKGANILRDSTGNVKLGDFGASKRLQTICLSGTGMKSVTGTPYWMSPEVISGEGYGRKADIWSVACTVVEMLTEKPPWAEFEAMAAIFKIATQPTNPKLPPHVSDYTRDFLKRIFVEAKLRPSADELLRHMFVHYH

## CCN(CC)CCNC(=O)c1c(C)[nH]c(/C=C2\C(=O)Nc3ccc(Cl)cc32)c1C
[1]
  residual activity: 3.51%
[2]
  residual activity: 88%
[3]
  residual activity: 74.7%
[4]
  residual activity: 27.8%
[5]
  residual activity: 20.1%
[6]
  residual activity: 72.6%
[7]
  residual activity: 83.4%
[8]
  residual activity: 93.8%
[9]
  residual activity: 86.9%
[10]
  residual activity: 86.1%
[11]
  residual activity: 22.1%
[12]
  residual activity: 16.6%
[13]
  residual activity: 13.8%
[14]
  residual activity: 41.7%
[15]
  residual activity: 8.45%
[16]
  residual activity: 59%
[17]
  residual activity: 103%
[18]
  residual activity: 87.5%
[19]
  residual activity: 104%
[20]
  residual activity: 86.3%
[21]
  residual activity: 65.8%
[22]
  residual activity: 101%
[23]
  residual activity: 94.8%
[24]
  residual activity: 2.47%
[25]
  residual activity: 102%
[26]
  residual activity: 90.7%
[27]
  residual activity: 86.7%
[28]
  residual activity: 84.4%
[29]
  residual activity: 101%
[30]
  residual activity: 103%
[31]
  residual activity: 11.5%
[32]
  residual activity: 22.6%
[33]
  residual activity: 28.7%
[34]
  residual activity: 11.5%
[35]
  residual activity: 95.1%
[36]
  residual activity: 101%
[37]
  residual activity: 80.7%
[38]
  residual activity: 102%
[39]
  residual activity: 117%
[40]
  residual activity: 97.1%
[41]
  residual activity: 49.7%
[42]
  residual activity: 104%
